These results are taken from patent US12714669B2, “Liposomal formulations comprising AT1 receptor blockers and uses thereof” (YISSUM RESEARCH DEVELOPMENT COMPANY OF THE HEBREW …, priority 2020, dated 2026).

“Also recorded” adds a separate entry of the source. Read-outs that look alike come from different tables or passages of the source.

The target of data set [1] is T1, AT1 receptor (Homo sapiens, UniProt P30556).
T1 sequence (P30556 1-359): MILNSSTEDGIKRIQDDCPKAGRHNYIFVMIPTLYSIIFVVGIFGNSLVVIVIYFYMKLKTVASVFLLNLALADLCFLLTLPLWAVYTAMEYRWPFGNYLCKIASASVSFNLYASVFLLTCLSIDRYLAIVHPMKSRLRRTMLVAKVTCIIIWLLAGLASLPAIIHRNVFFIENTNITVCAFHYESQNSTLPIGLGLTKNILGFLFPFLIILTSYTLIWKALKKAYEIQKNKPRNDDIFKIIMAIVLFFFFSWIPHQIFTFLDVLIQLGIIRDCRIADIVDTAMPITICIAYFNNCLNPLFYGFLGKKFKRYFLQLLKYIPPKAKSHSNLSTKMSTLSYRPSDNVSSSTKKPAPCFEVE
The following applies: cited from earlier work.

Data set [2] has as its target T1, AT1 receptor. Kind of data set: IC50 / affinity to AT1 receptor (stated, not measured in the patent). The following applies: corresponding to the nM values; read-out: IC50 to AT1 receptor, as mass concentration (converted). The format is binding.
The conditions of data set [3]: aqueous media; compared with valsartan; cited from earlier work.
The test system of data set [4] is mouse mean blood pressure (MBP). Kind of data set: Liposomal valsartan activity on mice blood pressure (CODA monitor, tail). The class given is in vivo. As to the method:
The development of liposomal ARB's aimed at delivering the drugs to the tumor and exert their activity there while avoiding the systemic effect of the drug on blood pressure. […] MBP was measured using CODA monitor device allowing measurement of blood pressure in mouse tail.
Four mice were tested before drug administration and 2, 24 and 48 h after drug administration. For each mouse, at least 3 measurements (and up to 10) were recorded for each time point.

Turning to `CCOc1nc2cccc(C(=O)O)c2n1Cc1ccc(-c2ccccc2-c2nnn[nH]2)cc1` [Candesartan, 2-ethoxy-3-[[4-[2-(2H-tetrazol-5-yl)phenyl]phenyl]methyl]benzimidazole-4-carboxylic acid], the IC50 on AT1 receptor [1] was 3 nM; at AT1 receptor [2], 2.95 nM. Further, at AT1 receptor [1] (versus losartan, telmisartan, valsartan (Bhuiyan 2013)), the “affinity for AT1 receptor” value is given as “highest affinity”. Moreover, the solubility entry in data set [3] is given as “very limited; also recorded: not soluble”.

On to `CCCCC(=O)N(Cc1ccc(-c2ccccc2-c2nnn[nH]2)cc1)[C@H](C(=O)O)C(C)C` [Valsartan, (2S)-3-methyl-2-[pentanoyl-[[4-[2-(2H-tetrazol-5-yl)phenyl]phenyl]methyl]amino]butanoic acid], for which, in data set [4] (25 mg/kg, 2 h after administration), the “lowering of MBP” value is on record as ~ 35 units. Further, the “MBP at t=24 h” value in data set [4] (25 mg/kg, 24 h after administration) is given as “returned to baseline”. The “effect on MBP 2 h after injection” value in data set [4] (2 h after injection) is on record as “reduction in MBP”. This compound also gave an MBP after administration in data set [4] (reduction from 105 mmHg) of 70 mmHg.
